Source: article PMC11352945, “Anticancer Activity of Benzo[a]phenoxazine Compounds Promoting Lysosomal Dysfunction” (Cells, 2024)
≈ marks a conversion by molar mass, not a printed value. Where two headings read alike, the source gives them in different places.

Key:
MDA-MB-231 cells [1] = assay: Sulforhodamine B (SRB) cell viability assay, MDA-MB-231; assay type: cell-based, human; details: for Selectivity Index Cell Line IC50/BJ-5ta IC50: MDA-MB-231 versus BJ-5ta; for IC50: Homo sapiens, MDA-MB-231, breast cancer cell line, 48 h, SRB, read-out: IC50 (μM) ± SD, MDA-MB-231
Method: (§1) The cells were allowed to adhere overnight, from 12 h to 18 h, and then treated with increasing concentrations of each compound, C9, A36, and A42 (0.125 μM, 0.25 μM, 0.5 μM, 1 μM, 2.5 μM, and 5 μM), in their respective culture mediums for 48 h. In addition to a negative control that consisted only of cells and growth medium, a negative control containing the highest concentration of the solvent in which the compound was dissolved (DMSO 0.1%) was also used. The SRB assay was performed according to Marques et al.. The IC50 values were obtained using GraphPad Prism version 8.2.1 through the application of a sigmoidal dose–response nonlinear regression, after logarithmic transformation. The selectivity index was determined by dividing the IC50 value of the non-neoplastic BJ-5ta cell line by the IC50 value of the cancer cell lines (IC50 BJ-5ta/IC50 cancer cell line); furthermore, for the CRC model, a second selectivity index was also determined using the non-neoplastic NCM460 cell line (IC50 NCM460/IC50 CRC cell line). According to the results of the selectivity index, the cell line with the highest selectivity value for each of the models, CRC and breast, was selected for subsequent characterization.
(§2) Three CRC-derived cell lines, SW480 (KRAS^G12V), HCT116 (KRAS^G13D), and RKO (BRAF^V600E), harboring somatic mutations on KRAS or BRAF, and two breast-cancer-derived cell lines, MDA-MB-231 (basal like) and MCF7 (luminal A subtype), together with two non-neoplastic cell lines, NCM460 (normal colon mucosal epithelial cell line) and BJ-5ta (normal foreskin fibroblast cell line), were used to study the activity and selectivity of the three new benzo[a]phenoxazine compounds, C9, A36, and A42. All cell lines were treated with a range of drug concentrations (0.125 μM, 0.25 μM, 0.5 μM, 1 μM, 2.5 μM, and 5 μM) for 48 h, and the effect on cell viability was assessed using a sulforhodamine B assay (SRB) (Figure 2). The results were used to determine the IC50 value of each compound for all the cell lines (Table 1). In addition, the selectivity index was determined using the BJ-5ta cell line as a reference, as well as the NCM460 cell line for the CRC model (Table 1).

S. cerevisiae = details: yeast S. cerevisiae, microdilution; cited from earlier work
BJ-5ta cells [2] = test system: BJ-5ta cells; design: method as in PMID 36614056; details: lead compound, non-neoplastic cell line; read-out: IC50 (μM) ± SD, BJ-5ta; cited from earlier work
NCM460 cells [3] = test system: NCM460 cells; design: method as in PMID 36614056; details: lead compound, non-neoplastic cell line; read-out: IC50 (μM) ± SD, NCM460; cited from earlier work
SW480 cells [4] = test system: SW480 cells; design: method as in PMID 36614056; details: lead compound, CRC cell line; read-out: IC50 (μM) ± SD, SW480; cited from earlier work
HCT116 cells [5] = test system: HCT116 cells; design: method as in PMID 36614056; details: lead compound, CRC cell line; read-out: IC50 (μM) ± SD, HCT116; cited from earlier work
RKO cells [6] = test system: RKO cells; design: method as in PMID 36614056; details: lead compound, CRC cell line; read-out: IC50 (μM) ± SD, RKO; cited from earlier work
MCF7 cells [7] = test system: MCF7 cells; design: method as in PMID 36614056; details: lead compound, breast cancer cell line; read-out: IC50 (μM) ± SD, MCF7; cited from earlier work
MDA-MB-231 cells [8] = test system: MDA-MB-231 cells; design: method as in PMID 36614056; details: lead compound, breast cancer cell line; read-out: IC50 (μM) ± SD, MDA-MB-231; cited from earlier work
BJ-5ta cells [9] = assay: Sulforhodamine B (SRB) cell viability assay, BJ-5ta; assay type: cell-based; details: Homo sapiens, non-neoplastic cell line, 48 h, read-out: IC50 (μM) ± SD, BJ-5ta
Method: as §1
as §2, with “The results were used to determine the IC50 value of each compound for all the cell lines (Table 1).” left out

NCM460 cells [10] = assay: Sulforhodamine B (SRB) cell viability assay, NCM460; assay type: cell-based; details: Homo sapiens, non-neoplastic cell line, 48 h, read-out: IC50 (μM) ± SD, NCM460
Method: as §1
as §2, with “The results were used to determine the IC50 value of each compound for all the cell lines (Table 1).” left out

SW480 cells [11] = assay: Sulforhodamine B (SRB) cell viability assay, SW480; assay type: cell-based; details: Homo sapiens, CRC cell line, 48 h, read-out: IC50 (μM) ± SD, SW480
Method: as §1
as §2, with “The results were used to determine the IC50 value of each compound for all the cell lines (Table 1).” left out

HCT116 cells [12] = assay: Sulforhodamine B (SRB) cell viability assay, HCT116; assay type: cell-based; details: Homo sapiens, HCT-116, CRC cell line, 48 h, read-out: IC50 (μM) ± SD, HCT116
Method: as §1
as §2, with “The results were used to determine the IC50 value of each compound for all the cell lines (Table 1).” left out

RKO cells [13] = assay: Sulforhodamine B (SRB) cell viability assay, RKO; assay type: cell-based; details: Homo sapiens, CRC cell line, 48 h, read-out: IC50 (μM) ± SD, RKO
Method: as §1
as §2, with “The results were used to determine the IC50 value of each compound for all the cell lines (Table 1).” left out

MCF7 cells [14] = assay: Sulforhodamine B (SRB) cell viability assay, MCF7; assay type: cell-based; details: Homo sapiens, breast cancer cell line, 48 h, read-out: IC50 (μM) ± SD, MCF7
Method: as §1
as §2, with “The results were used to determine the IC50 value of each compound for all the cell lines (Table 1).” left out

RKO cells [15] = assay: Cell proliferation by CFSE (flow cytometry), RKO; assay type: cell-based, human; details: IC50 and 2 × IC50, 24 h, 48 h, 72 h
Method: (§3) RKO and MCF7 cell proliferation was evaluated through flow cytometry using the Carboxyfluorescein Diacetate Succinimidyl Ester (CFSE) probe. Confluent cells were collected, rinsed with PBS 1×, and incubated with 5 μM of CFSE for 15 min at 37 °C. Then, the cells were rinsed, resuspended in growth medium, and seeded in 12-well plates at 1 × 10^5 cells/mL. After 24 h, adherent cells were treated with compounds C9, A36, and A42 at IC50 and 2 × IC50 concentrations or 0.1% DMSO (vehicle). Untreated cells were used as controls. The cells were harvested at different time points of 0 h, 24 h, […], and 72 h. The cells were then analyzed in a flow cytometer and the CFSE median fluorescence intensity was quantified using the FITC-A channel. All median values were normalized to the time point 0 h.
(§4) The benzo[a]phenoxazines C9, A36, and A42 were tested for their capacity to decrease cell growth using an optimized flow cytometry Carboxyfluorescein Diacetate Succinimidyl Ester (CFSE) labeling procedure. This procedure enables the differentiation of successive rounds of cell division, since the CFSE probe is uniformly distributed among daughter cells during cell division. As a result, a decrease in green CFSE fluorescence was employed as an indicator of cell proliferation.

MCF7 cells [16] = assay: Cell proliferation by CFSE (flow cytometry), MCF7; assay type: cell-based, human
Method: as §3, §4

MCF7 cells [17] = assay: Colony formation assay, MCF7; assay type: cell-based, human; details: MCF7, IC50/2, 48 h treatment
Method: (§5) A colony formation assay was conducted on the RKO and MCF7 cell lines. In 6-well plates, 600 cells/mL and 800 cells/mL RKO and MCF7 cells, respectively, were seeded. Adherent cells were treated with the compounds C9, A36, and A42 at IC50/2 and IC50 concentrations or 0.1% DMSO (vehicle). As a control, untreated cells were used. Following a 48 h incubation period, the cells were twice rinsed with PBS 1× before being supplemented with new medium. After that, the cells were given 10–14 days to grow (new medium was added every 3 days). Following a PBS 1× rinse, the colonies were fixed for 30 min using 0.5% crystal violet and 6% glutaraldehyde. The ImageJ software (V1.53) was used to calculate the number of colonies. The percentage of colonies was determined and normalized for the untreated control.

RKO cells [18] = assay: Colony formation assay, RKO; assay type: cell-based, human; details: 10-14 days growth
Method: as §5

RKO cells [19] = assay: Annexin V/PI assay (flow cytometry), RKO; assay type: cell-based, human; details: 2 × IC50 and 4 × IC50, 48 h
Method: (§6) RKO and MCF7 cells were seeded in 12-well plates at a density of 1 × 10^5 cells/mL. After 24 h, the cells were treated with C9, A36, and A42 at 2 × IC50 and 4 × IC50 concentrations or 0.1% DMSO (vehicle). Untreated cells were used as controls. After 48 h, floating and adherent cells were collected. The cells were resuspended in […] of binding buffer and treated for 15 min in the dark with 5 μL of Annexin V-FITC (Detection Kit-ab14085) and 5 μL of Propidium Iodide (50 μg/mL). The samples were subjected to flow cytometry analysis, PI fluorescence was detected using the ECD-A channel, and Annexin V fluorescence was detected using the FITC-A channel.
(§7) One of the main goals of clinical oncology is the development of compounds and treatments capable of selectively eliminating cancer cells. In this sense, we next evaluated the capability of the compounds to induce cell death in both cell lines. For this, we performed a flow cytometry analysis using annexin V-FITC and propidium iodide PI double staining. The conjugation of these two probes allowed for the discrimination of viable (negative for both), early apoptotic (annexin + and PI−), late apoptotic (annexin+ and PI+), and necrotic (annexin− and PI+) cells. […] Both flouting and attached cells were harvested and double stained.

MCF7 cells [20] = assay: Annexin V/PI assay (flow cytometry), MCF7; assay type: cell-based, human; details: MCF7, 2 × IC50 and 4 × IC50, 48 h
Method: as §6, §7

Structure (SMILES)	Selectivity Index Cell Line IC50/BJ-5ta IC50 (MDA-MB-231 cells [1])	MIC (minimum inhibitory concentration) (S. cerevisiae) [µM]	IC50 (BJ-5ta cells [9]) [µM]	IC50 (NCM460 cells [10]) [µM]	IC50 (SW480 cells [11]) [µM]	IC50 (HCT116 cells [12]) [µM]	IC50 (RKO cells [13]) [µM]	IC50 (MCF7 cells [14]) [µM]	IC50 (MDA-MB-231 cells [1]) [µM]	Colonies detected (MCF7 cells [17])	other results
CCN=c1cc2oc3cc(NCCCC(=O)OCC)c4ccccc4c3nc-2cc1C [BaP1]	1.05	25 (≈ 10.4 µg/mL)	–	–	–	–	–	–	–	–	IC50 (BJ-5ta cells [2]): 1.83 ± 0.06 µM; IC50 (NCM460 cells [3]): 12.8 ± 2.05 µM; IC50 (SW480 cells [4]): 5.6 ± 0.19 µM; IC50 (HCT116 cells [5]): 1.9 ± 0.09 µM; IC50 (RKO cells [6]): 1.4 ± 0.08 µM; IC50 (MCF7 cells [7]): 0.92 ± 0.07 µM; IC50 (MDA-MB-231 cells [8]): 1.73 ± 0.03 µM
CCCNc1cc2oc3cc(=[N+](CCC)CCC)ccc-3nc2c2ccccc12 [A36]	2.41	1.56	2.44 ± 0.18	2.06 ± 0.25	0.72 ± 0.03	1.28 ± 0.06	0.37 ± 0.03	0.63 ± 0.05	1.01 ± 0.09	reduced number of small colonies	Effect on cell proliferation (CFSE) (RKO cells [15]): highest effect; CFSE median fluorescence normalized to T0 (MCF7 cells [16]; MCF7, 2 × IC50, 24 h (untreated 37%)): 62%; CFSE median fluorescence normalized to T0 (MCF7 cells [16]; MCF7, 2 × IC50, 48 h (untreated 21%)): 59%; CFSE median fluorescence normalized to T0 (MCF7 cells [16]; MCF7, 2 × IC50, 72 h (untreated 10%)): 47%; Effect on cell proliferation (CFSE) (MCF7 cells [16]; MCF7, IC50 and 2 × IC50, 24 h, 48 h, 72 h): highest effect; CFSE median fluorescence normalized to T0 (MCF7 cells [16]; MCF7, IC50 concentration, 24 h (untreated 37%)): 53%; CFSE median fluorescence normalized to T0 (MCF7 cells [16]; MCF7, IC50 concentration, 48 h (untreated 21%)): 50%; CFSE median fluorescence normalized to T0 (MCF7 cells [16]; MCF7, IC50 concentration, 72 h (untreated 10%)): 41%
ClCCCN=c1cc2oc3c4c5c(cc3nc-2c2ccccc12)CCCN5CCC4 [A42]	3.26	0.78 (≈ 0.326 µg/mL)	2.58 ± 0.19	2.59 ± 0.31	0.78 ± 0.07	1.13 ± 0.07	0.29 ± 0.01	0.54 ± 0.02	0.79 ± 0.03	reduced number of small colonies	Reduction of the colonies formed (RKO cells [18]; IC50, 48 h treatment): > 90%; Reduction of the colonies formed (RKO cells [18]; IC50/2, 48 h treatment): more than 75%; Cell death induction (Annexin V/PI) (RKO cells [19]): most powerful compounds; Cell death induction (Annexin V/PI) (MCF7 cells [20]): most powerful compounds
